# Source: USRE50528E1, “Compounds and compositions for modulating EGFR mutant kinase activities” (Yuhan Corporation, priority 2014, dated 2025)
# Assays:
# [1] = target: T1, EGFR mutant T790M (Homo sapiens, UniProt P00533, T790M); assay: Kinase inhibition assay, EGFR mutant T790M; details: biochemical potency;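 also: truncated human EGFR mutant enzyme preincubated two hours with compound, then ATP plus ULight-PolyGT peptide for one hour, Europium-labeled antibody LANCE detection, IC50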
# T1 construct: truncated human JAK3, EGFR mutants such as del E746-A750; purchased Carna Biosciences
# [2] = target: T2, EGFR mutant Del19 (E746-A750) (Homo sapiens, UniProt P00533, DEL746-750); assay: Kinase inhibition assay, EGFR del E746-A750; type: biochemical; details: read-out: EGFR mutants Del19 (E746-A750);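 also: truncated human EGFR mutant kinase, two-hour preincubation with compound, then one-hour reaction with ATP and ULight-PolyGT peptide, LANCE Europium-antibody phosphorylation readout, IC50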
# T2 construct: truncated human JAK3, EGFR mutants such as del E746-A750; purchased Carna Biosciences
# [3] = target: T3, EGFR mutant L858R (Homo sapiens, UniProt P00533, L858R); assay: Kinase inhibition assay, EGFR L858R; type: biochemical; details: read-out: EGFR mutants L858R;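 also: truncated human EGFR L858R kinase with compound preincubation, ULight-PolyGT peptide phosphorylation read by Europium-antibody Lance detection, IC50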
# T3 construct: truncated human JAK3, EGFR mutants such as del E746-A750; purchased Carna Biosciences
# [4] = target: T4, EGFR mutant L858R/T790M (Homo sapiens, UniProt P00533, L858R/T790M); assay: Kinase inhibition assay, EGFR L858R/T790M; type: biochemical; details: read-out: EGFR mutants L858R/T790M;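 also: truncated human enzyme preincubated two hours with compound, then one hour with one millimolar ATP and ULight-PolyGT peptide, Europium-labeled antibody detection, IC50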
# T4 construct: truncated human JAK3, EGFR mutants such as del E746-A750; purchased Carna Biosciences
# [5] = target: T5, EGFR mutant Del19/T790M (Homo sapiens, UniProt P00533, DEL746-750/T790M); assay: Kinase inhibition assay, EGFR del E746-A750/T790M; type: biochemical; details: read-out: EGFR mutants Del19/T790M
# T5 construct: truncated human JAK3, EGFR mutants such as del E746-A750; purchased Carna Biosciences
# [6] = target: T6, SYK (Homo sapiens, UniProt P43405); assay: Kinase inhibition assay, SYK; type: biochemical; details: biochemical potency;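 also: purified full-length human SYK pre-incubated 30 min with compound, then ULight-TK peptide phosphorylation for 1 h, detected with Europium-labeled antibody in Lance buffer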
# T6 construct: Purified human, full-length SYK, KDR; purchased Carna Biosciences
# T5 sequence (P00533 with tags, fused parts or gaps DEL746-750/T790M limits assumed): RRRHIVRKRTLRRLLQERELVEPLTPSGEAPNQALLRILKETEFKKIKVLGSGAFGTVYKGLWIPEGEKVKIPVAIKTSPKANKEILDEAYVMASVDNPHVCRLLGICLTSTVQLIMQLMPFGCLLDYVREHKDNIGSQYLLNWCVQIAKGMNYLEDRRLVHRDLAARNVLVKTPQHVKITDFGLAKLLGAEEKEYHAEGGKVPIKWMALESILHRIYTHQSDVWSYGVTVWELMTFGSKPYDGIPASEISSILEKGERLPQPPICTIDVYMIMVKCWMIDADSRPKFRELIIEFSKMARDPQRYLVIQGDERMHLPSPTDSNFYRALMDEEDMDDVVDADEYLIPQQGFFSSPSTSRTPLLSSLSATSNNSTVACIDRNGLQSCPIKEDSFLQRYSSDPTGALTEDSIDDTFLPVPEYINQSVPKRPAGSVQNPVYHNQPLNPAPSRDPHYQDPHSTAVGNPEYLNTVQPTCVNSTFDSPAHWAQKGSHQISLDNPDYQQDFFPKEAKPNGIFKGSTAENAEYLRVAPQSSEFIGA
# T1 sequence (P00533 669-1210 T790M limits assumed): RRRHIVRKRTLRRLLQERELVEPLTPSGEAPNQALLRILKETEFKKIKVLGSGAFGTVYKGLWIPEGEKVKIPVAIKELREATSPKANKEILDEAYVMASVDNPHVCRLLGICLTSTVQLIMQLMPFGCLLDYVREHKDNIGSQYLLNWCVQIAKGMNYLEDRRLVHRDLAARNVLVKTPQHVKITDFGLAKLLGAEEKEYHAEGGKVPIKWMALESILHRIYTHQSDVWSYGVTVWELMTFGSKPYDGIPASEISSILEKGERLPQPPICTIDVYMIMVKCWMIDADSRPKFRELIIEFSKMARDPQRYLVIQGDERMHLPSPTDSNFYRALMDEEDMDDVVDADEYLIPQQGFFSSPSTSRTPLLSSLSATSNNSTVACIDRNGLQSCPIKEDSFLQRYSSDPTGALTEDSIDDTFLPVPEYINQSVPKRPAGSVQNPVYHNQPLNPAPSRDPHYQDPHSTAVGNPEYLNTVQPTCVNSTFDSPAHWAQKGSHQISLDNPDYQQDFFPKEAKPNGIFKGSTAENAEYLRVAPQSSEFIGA
# T4 sequence (P00533 669-1210 T790M/L858R limits assumed): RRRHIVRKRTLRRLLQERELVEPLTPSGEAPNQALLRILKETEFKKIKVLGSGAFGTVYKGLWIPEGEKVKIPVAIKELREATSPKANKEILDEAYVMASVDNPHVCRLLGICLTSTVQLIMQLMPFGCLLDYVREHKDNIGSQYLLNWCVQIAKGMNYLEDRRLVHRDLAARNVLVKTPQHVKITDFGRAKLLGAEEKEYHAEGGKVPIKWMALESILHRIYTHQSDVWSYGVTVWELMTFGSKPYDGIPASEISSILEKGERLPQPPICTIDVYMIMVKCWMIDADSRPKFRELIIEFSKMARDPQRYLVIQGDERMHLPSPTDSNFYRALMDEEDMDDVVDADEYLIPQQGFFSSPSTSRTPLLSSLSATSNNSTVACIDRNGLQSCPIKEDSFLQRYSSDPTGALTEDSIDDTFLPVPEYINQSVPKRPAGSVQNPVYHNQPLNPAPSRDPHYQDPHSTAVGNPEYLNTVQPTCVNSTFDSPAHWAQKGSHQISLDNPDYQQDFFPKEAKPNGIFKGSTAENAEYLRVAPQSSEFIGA
# T3 sequence (P00533 669-1210 L858R limits assumed): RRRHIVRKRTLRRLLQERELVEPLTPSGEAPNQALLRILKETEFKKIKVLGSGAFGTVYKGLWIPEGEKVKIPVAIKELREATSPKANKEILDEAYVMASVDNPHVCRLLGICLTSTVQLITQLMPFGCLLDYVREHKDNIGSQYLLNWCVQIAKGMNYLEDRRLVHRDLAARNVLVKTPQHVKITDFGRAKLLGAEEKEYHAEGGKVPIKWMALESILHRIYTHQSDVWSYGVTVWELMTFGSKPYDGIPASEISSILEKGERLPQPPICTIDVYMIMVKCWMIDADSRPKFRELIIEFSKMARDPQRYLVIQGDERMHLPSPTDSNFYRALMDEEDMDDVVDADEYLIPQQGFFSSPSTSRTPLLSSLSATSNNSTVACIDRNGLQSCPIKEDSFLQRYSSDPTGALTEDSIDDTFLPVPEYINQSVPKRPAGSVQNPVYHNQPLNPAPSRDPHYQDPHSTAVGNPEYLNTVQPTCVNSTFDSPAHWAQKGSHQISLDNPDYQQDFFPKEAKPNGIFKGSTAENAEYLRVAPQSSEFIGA
# T2 sequence (P00533 with tags, fused parts or gaps DEL746-750 limits assumed): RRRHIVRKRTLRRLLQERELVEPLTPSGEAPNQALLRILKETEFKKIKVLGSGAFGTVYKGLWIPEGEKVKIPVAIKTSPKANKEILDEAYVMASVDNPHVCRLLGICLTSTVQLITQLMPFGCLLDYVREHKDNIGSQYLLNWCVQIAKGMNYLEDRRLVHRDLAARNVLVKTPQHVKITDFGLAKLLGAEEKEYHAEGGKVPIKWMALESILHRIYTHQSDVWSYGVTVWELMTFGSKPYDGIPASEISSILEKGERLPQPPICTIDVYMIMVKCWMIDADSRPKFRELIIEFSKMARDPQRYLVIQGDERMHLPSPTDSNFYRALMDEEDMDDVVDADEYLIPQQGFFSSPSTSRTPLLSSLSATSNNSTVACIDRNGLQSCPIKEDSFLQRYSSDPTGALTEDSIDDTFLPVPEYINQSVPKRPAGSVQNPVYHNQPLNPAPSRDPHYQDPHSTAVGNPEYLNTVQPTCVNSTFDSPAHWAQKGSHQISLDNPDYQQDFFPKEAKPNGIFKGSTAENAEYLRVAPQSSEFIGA
SMILES,IC50 [1],IC50 [2],IC50 [3],IC50 [4],IC50 [5],IC50 [6]
"C=CC(=O)Nc1cc(Nc2ncc(C)c(-n3cc(CN4CC(O)C4)c(C)n3)n2)c(OC)cc1N(C)CCN(C)C [Compound 31, N-(2-((2-(dimethylamino)ethyl)(methyl)amino)-5-(4-(4-((3-hydroxyazetidin-1-yl)methyl)-3-methyl-1H-pyrazol-1-yl)-5-methylpyrimidin-2-ylamino)-4-methoxyphenyl)acrylamide]",< 20 nM,< 20 nM,< 20 nM,< 20 nM,< 20 nM,20 to 200 nM
"C=CC(=O)Nc1cc(Nc2ncc(C)c(-n3cc(CN4CCOCC4)cn3)n2)c(OC)cc1N1CCN(C)CC1 [Compound 33, N-(4-methoxy-5-(5-methyl-4-(4-(morpholinomethyl)-1H-pyrazol-1-yl)pyrimidin-2-ylamino)-2-(4-methylpiperazin-1-yl)phenyl)acrylamide]",< 20 nM,20 to 200 nM,20 to 200 nM,20 to 200 nM,< 20 nM,> 1000 nM
"C=CC(=O)Nc1cc(Nc2ncc(C)c(-n3cc(CN4CCC4)cn3)n2)c(OC)cc1N1CCN(C(C)=O)CC1 [Compound 37, N-(2-(4-acetylpiperazin-1-yl)-5-(4-(4-(azetidin-1-ylmethyl)-1H-pyrazol-1-yl)-5-methylpyrimidin-2-ylamino)-4-methoxyphenyl)acrylamide]",< 20 nM,< 20 nM,< 20 nM,< 20 nM,< 20 nM,201 to 1000 nM
"C=CC(=O)Nc1cc(Nc2nccc(-n3cc(CN4CCC4)cn3)n2)c(OC)cc1N(C)C [Compound 38, N-(5-(4-(4-(azetidin-1-ylmethyl)-1H-pyrazol-1-yl)pyrimidin-2-ylamino)-2-(dimethylamino)-4-methoxyphenyl)acrylamide]",< 20 nM,< 20 nM,< 20 nM,< 20 nM,20 to 200 nM,> 1000 nM
"C=CC(=O)Nc1cc(Nc2ncc(C)c(-n3cc(CN4CCC4)cn3)n2)c(OC)cc1N1CCCN(C)CC1 [Compound 41, N-(5-(4-(4-(azetidin-1-ylmethyl)-1H-pyrazol-1-yl)-5-methylpyrimidin-2-ylamino)-4-methoxy-2-(4-methyl-1,4-diazepan-1-yl)phenyl)acrylamide]",< 20 nM,< 20 nM,< 20 nM,< 20 nM,< 20 nM,201 to 1000 nM
"C=CC(=O)Nc1cc(Nc2ncc(C)c(-n3cc(CN4C[C@H](O)[C@H](OC)C4)cn3)n2)c(OC)cc1N(C)CCN(C)C [Compound 43, N-(2-((2-(dimethylamino)ethyl)(methyl)amino)-5-(4-(4-(((3S,4R)-3-hydroxy-4-methoxypyrrolidin-1-yl)methyl)-1H-pyrazol-1-yl)-5-methylpyrimidin-2-ylamino)-4-methoxyphenyl)acrylamide]",< 20 nM,< 20 nM,< 20 nM,< 20 nM,< 20 nM,> 1000 nM
"C=CC(=O)Nc1cc(Nc2nccc(-n3cc(CN4CC(OC)C4)c(C)n3)n2)c(OC)cc1N1CCOCC1 [Compound 44, N-(4-methoxy-5-(4-(4-((3-methoxyazetidin-1-yl)methyl)-3-methyl-1H-pyrazol-1-yl)pyrimidin-2-ylamino)-2-morpholinophenyl)acrylamide]",201 to 1000 nM,20 to 200 nM,20 to 200 nM,20 to 200 nM,20 to 200 nM,> 1000 nM
"C=CC(=O)Nc1cc(Nc2nccc(-n3cc(CN4C[C@H](O)[C@H](OC)C4)c(C)n3)n2)c(OC)cc1N1CCOCC1 [Compound 45, N-(5-(4-(4-(((3S,4R)-3-hydroxy-4-methoxypyrrolidin-1-yl)methyl)-3-methyl-1H-pyrazol-1-yl)pyrimidin-2-ylamino)-4-methoxy-2-morpholinophenyl)acrylamide]",20 to 200 nM,< 20 nM,20 to 200 nM,< 20 nM,< 20 nM,> 1000 nM

# Results, then the molecule that gave them:
IC50 [1],IC50 [2],IC50 [3],IC50 [4],IC50 [5],IC50 [6],SMILES
< 20 nM,20 to 200 nM,20 to 200 nM,< 20 nM,< 20 nM,> 1000 nM,"C=CC(=O)Nc1cc(Nc2ncc(Cl)c(-n3cc(CN4C[C@H](O)[C@H](OC)C4)c(C)n3)n2)c(OC)cc1N1CCOCC1 [Compound 51, N-(5-(5-chloro-4-(4-(((3S,4R)-3-hydroxy-4-methoxypyrrolidin-1-yl)methyl)-3-methyl-1H-pyrazol-1-yl)pyrimidin-2-ylamino)-4-methoxy-2-morpholinophenyl)acrylamide]"
< 20 nM,< 20 nM,< 20 nM,< 20 nM,< 20 nM,201 to 1000 nM,"C=CC(=O)Nc1cc(Nc2ncc(Cl)c(-n3cc(CN(C)C)c(C)n3)n2)c(OC)cc1N1CCOCC1 [Compound 52, N-(5-(5-chloro-4-(4-((dimethylamino)methyl)-3-methyl-1H-pyrazol-1-yl)pyrimidin-2-ylamino)-4-methoxy-2-morpholinophenyl)acrylamide]"
< 20 nM,< 20 nM,< 20 nM,< 20 nM,< 20 nM,> 1000 nM,"C=CC(=O)Nc1cc(Nc2nccc(-n3cc(CN4C[C@H](O)[C@H](OC)C4)c(C4CC4)n3)n2)c(OC)cc1N1CCOCC1 [Compound 56, N-(5-(4-(3-cyclopropyl-4-(((3S,4R)-3-hydroxy-4-methoxypyrrolidin-1-yl)methyl)-1H-pyrazol-1-yl)pyrimidin-2-ylamino)-4-methoxy-2-morpholinophenyl)acrylamide]"
< 20 nM,< 20 nM,< 20 nM,< 20 nM,< 20 nM,> 1000 nM,"C=CC(=O)Nc1cc(Nc2nccc(-n3cc(CN4CCC4)c(C)n3)n2)c(OC)cc1C1=CCN(C)CC1 [Compound 59, N-(5-(4-(4-(azetidin-1-ylmethyl)-3-methyl-1H-pyrazol-1-yl)pyrimidin-2-ylamino)-4-methoxy-2-(1-methyl-1,2,3,6-tetrahydropyridin-4-yl)phenyl)acrylamide]"
20 to 200 nM,< 20 nM,20 to 200 nM,< 20 nM,< 20 nM,> 1000 nM,"C=CC(=O)Nc1cc(Nc2ncc(F)c(-n3cc(C)c(CN4CCC4)c3)n2)c(OC)cc1N1CCOCC1 [Compound 60, N-(5-(4-(3-(azetidin-1-ylmethyl)-4-methyl-1H-pyrrol-1-yl)-5-fluoropyrimidin-2-ylamino)-4-methoxy-2-morpholinophenyl)acrylamide]"
< 20 nM,< 20 nM,20 to 200 nM,< 20 nM,< 20 nM,> 1000 nM,"C=CC(=O)Nc1cc(Nc2ncc(C)c(-n3cc(CN4CCC4)cn3)n2)c(OC)cc1C1=CCN(C)CC1 [Compound 64, N-(5-(4-(4-(azetidin-1-ylmethyl)-1H-pyrazol-1-yl)-5-methylpyrimidin-2-ylamino)-4-methoxy-2-(1-methyl-1,2,3,6-tetrahydropyridin-4-yl)phenyl)acrylamide]"
20 to 200 nM,< 20 nM,< 20 nM,< 20 nM,< 20 nM,> 1000 nM,"C=CC(=O)Nc1cc(Nc2ncc(C)c(-n3cc(CN4CCC4)c(C(C)(C)C)n3)n2)c(OC)cc1N1CCOCC1 [Compound 67, N-(5-(4-(4-(azetidin-1-ylmethyl)-3-tert-butyl-1H-pyrazol-1-yl)-5-methylpyrimidin-2-ylamino)-4-methoxy-2-morpholinophenyl)acrylamide]"
< 20 nM,< 20 nM,< 20 nM,< 20 nM,< 20 nM,201 to 1000 nM,"C=CC(=O)Nc1cc(Nc2ncc(Cl)c(-n3cc(CN(C)C)cn3)n2)c(OC)cc1N1CCOCC1 [Compound 77, N-(5-(5-chloro-4-(4-((dimethylamino)methyl)-1H-pyrazol-1-yl)pyrimidin-2-ylamino)-4-methoxy-2-morpholinophenyl)acrylamide]"
< 20 nM,< 20 nM,< 20 nM,< 20 nM,< 20 nM,> 1000 nM,"C=CC(=O)Nc1cc(Nc2nccc(-n3cc(CN(C)C)c(-c4ccc(C)cc4)n3)n2)c(OC)cc1N1CCOCC1 [Compound 80, N-(5-(4-(4-((dimethylamino)methyl)-3-p-tolyl-1H-pyrazol-1-yl)pyrimidin-2-ylamino)-4-methoxy-2-morpholinophenyl)acrylamide]"
201 to 1000 nM,20 to 200 nM,20 to 200 nM,20 to 200 nM,20 to 200 nM,> 1000 nM,"C=CC(=O)Nc1cc(Nc2nccc(-n3cc(CN4CCC4)c(-c4ccc(F)cc4)n3)n2)c(OC)cc1N1CCOCC1 [Compound 81, N-(5-(4-(4-(azetidin-1-ylmethyl)-3-(4-fluorophenyl)-1H-pyrazol-1-yl)pyrimidin-2-ylamino)-4-methoxy-2-morpholinophenyl)acrylamide]"
< 20 nM,< 20 nM,< 20 nM,< 20 nM,< 20 nM,> 1000 nM,"C=CC(=O)Nc1cc(Nc2nccc(-n3cc(CN(C)C)c(-c4ccccc4)n3)n2)c(OC)cc1N(C)C [Compound 83, N-(2-(dimethylamino)-5-(4-(4-((dimethylamino)methyl)-3-phenyl-1H-pyrazol-1-yl)pyrimidin-2-ylamino)-4-methoxyphenyl)acrylamide]"
